According to the supplement of paper PMC13380429:

Tests used:
Details in all cases: 72 h
Calu-3 [1] = assay: drug sensitivity score (DSS) for viability; higher = more toxic; extreme values may be limits of the assay
Vero E6 [2] = assay: as above
U2OS [3] = assay: as above
HepG2 [4] = assay: as above
Caco-2 [5] = assay: as above
Calu-3 [6] = assay: cell viability relative to DMSO; higher = less toxic
Vero E6 [7] = assay: as above
U2OS [8] = assay: as above
HepG2 [9] = assay: as above
Caco-2 [10] = assay: as above
Calu-3 [11] = assay: relative viability EC50 (midpoint between 100% and the lowest measured viability); higher = less toxic
Vero E6 [12] = assay: as above
U2OS [13] = assay: as above
HepG2 [14] = assay: as above
Caco-2 [15] = assay: as above

SMILES	drug sensitivity score (Calu-3 [1])	drug sensitivity score (Vero E6 [2])	drug sensitivity score (U2OS [3])	drug sensitivity score (HepG2 [4])	drug sensitivity score (Caco-2 [5])	cell viability (Calu-3 [6]; 1 nM) [%]	cell viability (Calu-3 [6]; 10 nM) [%]	cell viability (Calu-3 [6]; 100 nM) [%]	cell viability (Calu-3 [6]; 1000 nM) [%]	cell viability (Calu-3 [6]; 10000 nM) [%]	cell viability (Vero E6 [7]; 1 nM) [%]	cell viability (Vero E6 [7]; 10 nM) [%]	cell viability (Vero E6 [7]; 100 nM) [%]	cell viability (Vero E6 [7]; 1000 nM) [%]	cell viability (Vero E6 [7]; 10000 nM) [%]	cell viability (U2OS [8]; 1 nM) [%]	cell viability (U2OS [8]; 10 nM) [%]	cell viability (U2OS [8]; 100 nM) [%]	cell viability (U2OS [8]; 1000 nM) [%]	cell viability (U2OS [8]; 10000 nM) [%]	cell viability (HepG2 [9]; 1 nM) [%]	cell viability (HepG2 [9]; 10 nM) [%]	cell viability (HepG2 [9]; 100 nM) [%]	cell viability (HepG2 [9]; 1000 nM) [%]	cell viability (HepG2 [9]; 10000 nM) [%]	cell viability (Caco-2 [10]; 1 nM) [%]	cell viability (Caco-2 [10]; 10 nM) [%]	cell viability (Caco-2 [10]; 100 nM) [%]	cell viability (Caco-2 [10]; 1000 nM) [%]	cell viability (Caco-2 [10]; 10000 nM) [%]	relative viability EC50 (Calu-3 [11]) [µM]	relative viability EC50 (Vero E6 [12]) [µM]	relative viability EC50 (U2OS [13]) [µM]	relative viability EC50 (HepG2 [14]) [µM]	relative viability EC50 (Caco-2 [15]) [µM]
O=C1NC(=S)NC(=O)C1C(=O)Nc1ccccc1 [merbarone]	0	0	0	0	0	99.3	100	105	106	110	100	91.6	93.9	92.7	106	93.9	96.3	97.4	103	104	104	87.2	100	99.8	102	94.7	93.3	103	94	94.5	> 10	> 10	> 10	> 10	> 10
CC(=O)Nc1cccc(O)c1 [metacetamol]	0	0	0	0.6	0	98.1	101	99.9	99.8	96.9	102	94.1	96	97.9	102	103	101	99.7	95.5	101	103	91.5	93.7	92.1	83.8	104	101	89.1	93.8	98.8	> 10	> 10	> 10	> 10	> 10
Cc1cc(C(C)(C)CC(C)(C)C)ccc1OCCOCC[N+](C)(C)Cc1ccccc1 [methylbenzethonium-chloride]	1.3	0	0.6	0.3	5.4	103	103	91.4	89.8	80.5	95.9	98.5	92.2	98.3	106	101	94.7	102	98.9	82.2	92	105	98.1	108	81.2	95.2	102	99.3	85	42.5	> 10	> 10	> 10	> 10	1.51
CCCCCCCCCCCCCCCCOP(=O)([O-])OCC[N+](C)(C)C [miltefosine]	0	0.6	0	0	0	98.3	91.5	90.3	108	86.5	96.1	101	110	105	77.3	96.8	103	97.2	99.9	95.5	107	98.5	112	96.4	109	113	104	106	114	99.8	> 10	> 10	> 10	> 10	> 10
COc1nc(C)nc(Cl)c1NC1=NCCN1 [moxonidine]	0	0	0	0	0	96.2	93.5	90	101	97.5	102	100	93.2	94.5	106	98.7	101	97.1	102	99.3	103	101	99.3	104	95.5	97.1	95.6	95.8	105	88.7	> 10	> 10	> 10	> 10	> 10
CC[C@@H](Nc1c(Nc2cccc(C(=O)N(C)C)c2O)c(=O)c1=O)c1ccc(C)o1 [navarixin]	0	0	0	0	0	89.2	98.3	95.1	102	105	94.9	95.3	96.6	90.2	107	93.4	102	98.3	98.4	103	97.9	87.4	93.8	94.6	99	95	99.3	106	99.3	91.6	> 10	> 10	> 10	> 10	> 10
CN1C(=O)C(Cc2c[nH]c3ccccc23)NC1=S (stereo not given) [necrostatin-1]	0	0	0	0	0	93.9	92	90.3	96.2	99	95.8	99	101	99.8	103	93.6	99.2	97.7	98.6	95.1	110	94.5	98.1	94.6	90.6	97.7	95.8	107	110	100	> 10	> 10	> 10	> 10	> 10
